Reference: US20260285850A1, “SUBSTITUTED OXAZOLIDINONES AND IMIDAZOLINONES AS HERBICIDES” (FMC CORPORATION, priority 2023, published 2026)

What was measured:
Format in all cases: in vivo
[1] = test system: barnyardgrass (Echinochloa crus-galli); test: Test A preemergence soil spray, visual injury rating 0-100; settings: 10 days, 0 = no effect, 100 = complete control
In short: (§1)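 Rating: visual, day 10, untreated plants as reference, 0 no effect to 100 full control. Plants were in loam-sand and were treated either preemergence via directed soil spray or postemergence at the one- to two-leaf stage.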

[2] = test system: blackgrass (Alopecurus myosuroides); test: as above; settings: 10 days, 0 = no effect, 100 = complete control
In short: as §1

[3] = test system: foxtail, giant (giant foxtail, Setaria faberi); test: as above; settings: 10 days, 0 = no effect, 100 = complete control
In short: as §1

kochia (Bassia scoparia) [4] = test: as above; settings: 10 days, 0 = no effect, 100 = complete control
In short: as §1

[5] = test system: palmer (palmer amaranth, palmer pigweed, Amaranthus palmeri); test: as above; settings: 10 days, 0 = no effect, 100 = complete control
In short: as §1

[6] = test system: ragweed (common ragweed, Ambrosia artemisiifolia); test: as above; settings: 10 days, 0 = no effect, 100 = complete control
In short: as §1

[7] = test system: ryegrass, Italian (italian ryegrass, Lolium multiflorum); test: as above; settings: 10 days, 0 = no effect, 100 = complete control
In short: as §1

[8] = test system: barnyardgrass (Echinochloa crus-galli); test: Test A postemergence application, visual injury rating 0-100; settings: Postemergence, 10 days; for Barnyardgrass plant response rating (0 to 100 scale): 0 is no effect, 100 is complete control
In short: as §1

[9] = test system: blackgrass (Alopecurus myosuroides); test: as above; settings: Postemergence, 10 days; for Blackgrass plant response rating (0 to 100 scale): 0 is no effect, 100 is complete control
In short: as §1

[10] = test system: foxtail, giant (giant foxtail, Setaria faberi); test: as above; settings: 10 days; for Foxtail, Giant plant response rating (0 to 100 scale): 0 is no effect, 100 is complete control
In short: as §1

[11] = test system: galium (catchweed bedstraw, Galium aparine); test: as above; settings: Postemergence, 10 days; for Galium plant response rating (0 to 100 scale): 0 is no effect, 100 is complete control
In short: as §1

[12] = test system: horseweed (Erigeron canadensis); test: as above; settings: Postemergence, 1000 g ai/ha, 0 to 100 scale, 10 days
In short: as §1

kochia (Bassia scoparia) [13] = test: as above; settings: Postemergence, 10 days; for Kochia plant response rating (0 to 100 scale): 0 is no effect, 100 is complete control
In short: as §1

[14] = test system: palmer (palmer amaranth, palmer pigweed, Amaranthus palmeri); test: as above; settings: Postemergence, 10 days; for Amaranth, Palmer / Pigweed, Palmer plant response rating (0 to 100 scale): 0 is no effect, 100 is complete control
In short: as §1

[15] = test system: ragweed (common ragweed, Ambrosia artemisiifolia); test: as above; settings: Postemergence, 10 days; for Ragweed plant response rating (0 to 100 scale): 0 is no effect, 100 is complete control
In short: as §1

[16] = test system: ryegrass, Italian (italian ryegrass, Lolium multiflorum); test: as above; settings: Postemergence, 10 days; for Ryegrass, Italian plant response rating (0 to 100 scale): 0 is no effect, 100 is complete control
In short: as §1

[17] = test system: barnyardgrass (Echinochloa crusgalli); test: Test B flooded paddy test, visual plant response rating 0-100; settings: 250 g ai/ha, Flood, applied to paddy water, evaluated after 13 days
In short: (§2)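 Each species was raised to two leaves before flooding to a 3 cm depth and dosing the water with compound. Injury was assessed by eye after 13 days under greenhouse conditions.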

[18] = test system: ducksalad (Heteranthera limosa); test: as above; settings: 250 g ai/ha, Flood, applied to paddy water, evaluated after 13 days
In short: as §2

rice (Oryza sativa) = test: as above; settings: 250 g ai/ha, Flood, applied to paddy water, evaluated after 13 days
In short: as §2

[19] = test system: sedge, umbrella (small-flower umbrella sedge, Cyperus difformis); test: as above; settings: 250 g ai/ha, Flood, applied to paddy water, evaluated after 13 days
In short: as §2

corn (Zea mays) [20] = test: Test A preemergence soil spray, visual injury rating 0-100; settings: 10 days, 0 = no effect, 100 = complete control
In short: as §1

[21] = test system: oat, wild (wild oat, Avena fatua); test: as above; settings: 10 days, 0 = no effect, 100 = complete control
In short: as §1

soybean (Glycine max) [22] = test: as above; settings: 10 days, 0 = no effect, 100 = complete control
In short: as §1

[23] = test system: wheat (Triticum aestivum); test: as above; settings: 10 days, 0 = no effect, 100 = complete control
In short: as §1

corn (Zea mays) [24] = test: Test A postemergence application, visual injury rating 0-100; settings: Postemergence, 10 days, 0 is no effect, 100 is complete control
In short: as §1

[25] = test system: oat, wild (wild oat, Avena fatua); test: as above; settings: Postemergence, 10 days, 0 is no effect, 100 is complete control
In short: as §1

soybean (Glycine max) [26] = test: as above; settings: Postemergence, 10 days, 0 is no effect, 100 is complete control
In short: as §1

[27] = test system: wheat (Triticum aestivum); test: as above; settings: Postemergence, 10 days, 0 is no effect, 100 is complete control
In short: as §1

Compound: CSCCOC(=O)[C@@H]1C=C[C@H](NC(=O)C2(C)CN(c3cc(F)cc(F)c3)C(=O)O2)C1 (stereo partly drawn) [Compound 48, 2-(Methylthio)ethyl (1S,4R)-4-[[[3-(3,5-difluorophenyl)-5-methyl-2-oxo-5-oxazolidinyl]carbonyl]amino]-2-cyclopentene-1-carboxylate]
- Barnyardgrass plant response rating (0 to 100 scale) ([1]; 1000 g ai/ha): 100
- Blackgrass plant response rating (0 to 100 scale) ([2]; 1000 g ai/ha): 90
- Foxtail, Giant plant response rating (0 to 100 scale) ([3]; 1000 g ai/ha): 100
- Kochia plant response rating (0 to 100 scale) (kochia (Bassia scoparia) [4]; 1000 g ai/ha): 100
- Amaranth, Palmer / Pigweed, Palmer plant response rating (0 to 100 scale) ([5]; 1000 g ai/ha): 100
- Ragweed plant response rating (0 to 100 scale) ([6]; 1000 g ai/ha): 90
- Ryegrass, Italian plant response rating (0 to 100 scale) ([7]; 1000 g ai/ha): 100
- Barnyardgrass plant response rating ([8]; 1000 g ai/ha, 0 to 100 scale): 90
- Blackgrass plant response rating ([9]; 1000 g ai/ha, 0 to 100 scale): 100
- Foxtail, Giant plant response rating ([10]; 1000 g ai/ha, 0 to 100 scale): 90
- Galium plant response rating ([11]; 1000 g ai/ha, 0 to 100 scale): 80
- Horseweed plant response rating [12]: 70
- Kochia plant response rating (kochia (Bassia scoparia) [13]; 1000 g ai/ha, 0 to 100 scale): 70
- Amaranth, Palmer plant response rating ([14]; 1000 g ai/ha, 0 to 100 scale): 90
- Ragweed plant response rating ([15]; 1000 g ai/ha, 0 to 100 scale): 70
- Ryegrass, Italian plant response rating ([16]; 1000 g ai/ha, 0 to 100 scale): 90
- Plant response rating, Barnyardgrass (0 to 100 scale, 0 is no effect and 100 is complete control) [17]: 70
- Plant response rating, Ducksalad (0 to 100 scale, 0 is no effect and 100 is complete control) [18]: 70
- Plant response rating, Rice (0 to 100 scale, 0 is no effect and 100 is complete control) (rice (Oryza sativa)): 65
- Plant response rating, Sedge, Umbrella (0 to 100 scale, 0 is no effect and 100 is complete control) [19]: 80

Compound: CC1(C(=O)NC2C=CC(C(=O)OCCS(C)(=O)=O)C2)CN(c2cc(F)cc(F)c2)C(=O)O1 (stereo not shown) [Compound 49]
- Barnyardgrass plant response rating (0 to 100 scale) ([1]; 125 g ai/ha): 90
- Barnyardgrass plant response rating (0 to 100 scale) ([1]; 500 g ai/ha): 100
- Blackgrass plant response rating (0 to 100 scale) ([2]; 125 g ai/ha): 70
- Blackgrass plant response rating (0 to 100 scale) ([2]; 500 g ai/ha): 80
- Corn plant response rating (0 to 100 scale) (corn (Zea mays) [20]; 125 g ai/ha): 80
- Corn plant response rating (0 to 100 scale) (corn (Zea mays) [20]; 500 g ai/ha): 90
- Foxtail, Giant plant response rating (0 to 100 scale) ([3]; 125 g ai/ha): 90
- Foxtail, Giant plant response rating (0 to 100 scale) ([3]; 500 g ai/ha): 100
- Kochia plant response rating (0 to 100 scale) (kochia (Bassia scoparia) [4]; 125 g ai/ha): 90
- Kochia plant response rating (0 to 100 scale) (kochia (Bassia scoparia) [4]; 500 g ai/ha): 100
- Oat, Wild plant response rating (0 to 100 scale) ([21]; 125 g ai/ha): 80
- Oat, Wild plant response rating (0 to 100 scale) ([21]; 500 g ai/ha): 90
- Amaranth, Palmer plant response rating (0 to 100 scale) ([5]; 125 g ai/ha): 90
- Amaranth, Palmer plant response rating (0 to 100 scale) ([5]; 500 g ai/ha): 100
- Ragweed plant response rating (0 to 100 scale) ([6]; 125 g ai/ha): 40
- Ragweed plant response rating (0 to 100 scale) ([6]; 500 g ai/ha): 90
- Ryegrass, Italian plant response rating (0 to 100 scale) ([7]; 125 g ai/ha): 80
- Ryegrass, Italian plant response rating (0 to 100 scale) ([7]; 500 g ai/ha): 100
- Soybean plant response rating (0 to 100 scale) (soybean (Glycine max) [22]; 125 g ai/ha): 80
- Soybean plant response rating (0 to 100 scale) (soybean (Glycine max) [22]; 500 g ai/ha): 90
- Wheat plant response rating (0 to 100 scale) ([23]; 125 g ai/ha): 90
- Wheat plant response rating (0 to 100 scale) ([23]; 500 g ai/ha): 100
- Barnyardgrass plant response rating (0 to 100 scale) ([8]; 125 g ai/ha): 100
- Barnyardgrass plant response rating (0 to 100 scale) ([8]; 500 g ai/ha): 100
- Blackgrass plant response rating (0 to 100 scale) ([9]; 125 g ai/ha): 90
- Blackgrass plant response rating (0 to 100 scale) ([9]; 500 g ai/ha): 100
- Corn plant response rating (0 to 100 scale) (corn (Zea mays) [24]; 125 g ai/ha): 100
- Corn plant response rating (0 to 100 scale) (corn (Zea mays) [24]; 500 g ai/ha): 100
- Foxtail, Giant plant response rating (0 to 100 scale) ([10]; 125 g ai/ha): 90
- Foxtail, Giant plant response rating (0 to 100 scale) ([10]; 500 g ai/ha): 90
- Galium plant response rating (0 to 100 scale) ([11]; 125 g ai/ha): 70
- Galium plant response rating (0 to 100 scale) ([11]; 500 g ai/ha): 80
- Kochia plant response rating (0 to 100 scale) (kochia (Bassia scoparia) [13]; 125 g ai/ha): 70
- Kochia plant response rating (0 to 100 scale) (kochia (Bassia scoparia) [13]; 500 g ai/ha): 80
- Oat, Wild plant response rating (0 to 100 scale) ([25]; 125 g ai/ha): 90
- Oat, Wild plant response rating (0 to 100 scale) ([25]; 500 g ai/ha): 90
- Amaranth, Palmer / Pigweed, Palmer plant response rating (0 to 100 scale) ([14]; 125 g ai/ha): 90
- Amaranth, Palmer / Pigweed, Palmer plant response rating (0 to 100 scale) ([14]; 500 g ai/ha): 100
- Ragweed plant response rating (0 to 100 scale) ([15]; 125 g ai/ha): 70
- Ragweed plant response rating (0 to 100 scale) ([15]; 500 g ai/ha): 70
- Ryegrass, Italian plant response rating (0 to 100 scale) ([16]; 125 g ai/ha): 80
- Ryegrass, Italian plant response rating (0 to 100 scale) ([16]; 500 g ai/ha): 90
- Soybean plant response rating (0 to 100 scale) (soybean (Glycine max) [26]; 125 g ai/ha): 90
- Soybean plant response rating (0 to 100 scale) (soybean (Glycine max) [26]; 500 g ai/ha): 90
- Wheat plant response rating (0 to 100 scale) ([27]; 125 g ai/ha): 90
- Wheat plant response rating (0 to 100 scale) ([27]; 500 g ai/ha): 90
- Plant response rating, Barnyardgrass (0 to 100 scale, 0 is no effect and 100 is complete control) [17]: 80
- Plant response rating, Ducksalad (0 to 100 scale, 0 is no effect and 100 is complete control) [18]: 90
- Plant response rating, Rice (0 to 100 scale, 0 is no effect and 100 is complete control) (rice (Oryza sativa)): 55
- Plant response rating, Sedge, Umbrella (0 to 100 scale, 0 is no effect and 100 is complete control) [19]: 95
